Measurements published in BindingDB's records for doi:10.1021/jm960455s (Bristol-Myers Squibb Pharmaceutical Research Institute, 1997).
Non-standard residues stand in square brackets, D forms with d. Residues, ends and D or L forms follow the SMILES beside them. *: point of attachment. Phe(4-guanidino) = N=C(N)Nc1ccc(C[CH](N)C(=O)O)cc1; Phe(4-F) = N[CH](Cc1ccc(F)cc1)C(=O)O; 2Nal = N[C@@H](Cc1ccc2ccccc2c1)C(=O)O; Benzoyl(4-Cl) = O=C(c1ccc(Cl)cc1)*; X5 = O=C(c1cc2ccccc2[nH]1)*; βAla = NCCC(=O)O

Key:
[1] = Effective concentration for stimulation of platelet aggregation
[2] = Concentration of compound required to inhibit agonist (SFLLRNP-NH2, at 3 uM) induced platelet aggregation by 50%
[3] = as above; remark: listed apart in the source

## COc1ccc(C[C@H](NC(=O)[C@@H](N)CO)C(=O)N[C@@H](CC(C)C)C(=O)N[C@@H](CC(C)C)C(=O)N[C@@H](CCCN=C(N)N)C(N)=O)cc1
[1]
  EC50: 720 nM

## CC(C)CC(NC(=O)C(Cc1ccc(N=C(N)N)cc1)NC(=O)C(Cc1ccc(F)cc1)NC(=O)c1cc2ccccc2[nH]1)C(=O)NC(CCCNC(=N)N)C(N)=O (stereo not drawn) [1H-Indole-2-carboxylic acid [1-[1-[1-(1-carbamoyl-4-guanidino-butylcarbamoyl)-3-methyl-butylcarbamoyl]-2-(4-guanidino-phenyl)-ethylcarbamoyl]-2-(4-fluoro-phenyl)-ethyl]-amide] (X5-[Phe(4-F)][Phe(4-guanidino)]LR-NH2; configuration not given here)
[1]
  EC50: 1800 nM

## CC(=O)N(C(=O)C=Cc1cccc(Cl)c1)C(Cc1ccc(F)cc1)C(=O)NC(Cc1ccc(N=C(N)N)cc1)C(=O)NC(CC(C)C)C(=O)NC(CCCNC(=N)N)C(N)=O (stereo not drawn) [2-[2-[2-{Acetyl-[(E)-3-(3-chloro-phenyl)-acryloyl]-amino}-3-(4-fluoro-phenyl)-propionylamino]-3-(4-guanidino-phenyl)-propionylamino]-4-methyl-pentanoic acid (1-carbamoyl-4-guanidino-butyl)-amide]
[2]
  IC50: 80 nM

## CC(=O)N(C(=O)C=Cc1ccccc1)C(Cc1ccc(F)cc1)C(=O)NC(Cc1ccc(N)cc1)C(=O)NC(CC(C)C)C(=O)NC(CCCNC(=N)N)C(N)=O (stereo not drawn) [2-[2-[2-{Acetyl-[(E)-(3-phenyl-acryloyl)]-amino}-3-(4-fluoro-phenyl)-propionylamino]-3-(4-amino-phenyl)-propionylamino]-4-methyl-pentanoic acid (1-carbamoyl-4-guanidino-butyl)-amide]
[1]
  EC50: 60000 nM

## CC(=O)NCCC(=O)N[C@@H](Cc1ccc(F)cc1)C(=O)N[C@@H](Cc1ccc2ccccc2c1)C(=O)N[C@@H](CC(C)C)C(=O)N[C@@H](CCCN=C(N)N)C(N)=O [2-{(R)-2-[2-(3-Acetylamino-propionylamino)-3-(4-fluoro-phenyl)-propionylamino]-3-naphthalen-2-yl-propionylamino}-4-methyl-pentanoic acid (1-carbamoyl-4-guanidino-butyl)-amide] (Ac-[βAla][Phe(4-F)][2Nal]LR-NH2)
[1]
  EC50: 270 nM

## CC(=O)N(C(=O)C=Cc1ccccc1)C(Cc1ccc(F)cc1)C(=O)NC(=O)NCCCC(NC(=O)C(CC(C)C)NC(=O)C(N)CCCNC(=N)N)C(=O)O (stereo not drawn) [5-{3-[2-{Acetyl-[(E)-(3-phenyl-acryloyl)]-amino}-3-(4-fluoro-phenyl)-propionyl]-ureido}-2-[2-(2-amino-5-guanidino-pentanoylamino)-4-methyl-pentanoylamino]-pentanoic acid]
[1]
  EC50: 67000 nM

## CC(=O)N(C(=O)c1ccc(-c2ccccc2)cc1)C(Cc1ccc(F)cc1)C(=O)NC(Cc1ccc(N=C(N)N)cc1)C(=O)NC(CC(C)C)C(=O)NC(CCCNC(=N)N)C(N)=O (stereo not drawn) [Biphenyl-4-carboxylic acid acetyl-[1-[1-[1-(1-carbamoyl-4-guanidino-butylcarbamoyl)-3-methyl-butylcarbamoyl]-2-(4-guanidino-phenyl)-ethylcarbamoyl]-2-(4-fluoro-phenyl)-ethyl]-amide]
[3]
  IC50: 430 nM

## CC(C)CC(NC(=O)C(Cc1ccc(N=C(N)N)cc1)NC(=O)C(Cc1ccc(F)cc1)NC(=O)c1ccc(Cl)cc1)C(=O)NC(CCCNC(=N)N)C(N)=O (stereo not drawn) [N-[1-[1-[1-(1-Carbamoyl-4-guanidino-butylcarbamoyl)-3-methyl-butylcarbamoyl]-2-(4-guanidino-phenyl)-ethylcarbamoyl]-2-(4-fluoro-phenyl)-ethyl]-4-chloro-benzamide] ({Benzoyl(4-Cl)}-[Phe(4-F)][Phe(4-guanidino)]LR-NH2; configuration not given here)
[1]
  EC50: 3700 nM
